{"source": "patent US20250339461A1", "about": "(priority 2024, published 2025)", "key": {"migraine headache": {"test_system": "migraine headache", "details": "human, in vivo"}, "[1]": {"details": "human, in vivo"}, "neuropathic facial pain": {"test_system": "neuropathic facial pain", "set-up": "species or system human", "details": "in vivo"}, "nausea": {"test_system": "nausea", "details": "human, in vivo"}}, "note": "Entries after “also recorded” stand apart in the source; their conditions may differ."}
{"molecule": "O=C(O)Cc1ccccc1Nc1c(Cl)cccc1Cl", "note": "[diclofenac]", "values": [{"measurement": "benefit for rescue", "setting": "migraine headache", "result": "without benefit"}]}
{"molecule": "NS(=O)(=O)Cc1noc2ccccc12", "note": "[zonisamide]", "values": [{"measurement": "benefit as prophylactic agent for migraines", "setting": "migraine headache", "result": "without benefit"}]}
{"molecule": "CC1(C)O[C@@H]2[C@@H](CO[C@@]3(COS(N)(=O)=O)OC(C)(C)O[C@@H]23)O1", "note": "[topiramate]", "values": [{"measurement": "tolerability", "setting": "[1]", "result": "could not tolerate the side effects"}, {"measurement": "benefit as prophylactic agent for migraines", "setting": "migraine headache", "result": "without benefit"}, {"measurement": "benefit for migraine prophylaxis", "setting": "migraine headache", "result": "helped some"}, {"measurement": "benefit for migraine prophylaxis, history at first visit", "setting": "migraine headache", "result": "no benefit"}, {"measurement": "frequency of severe migraine headaches on treatment", "setting": "migraine headache", "result": "5 to 7", "unit": "days a week"}]}
{"molecule": "CC(C)C[C@H](CN)CC(=O)O", "note": "[pregabalin]", "values": [{"measurement": "effect on comorbid neuropathic facial pain", "setting": "neuropathic facial pain", "result": "treated effectively"}, {"measurement": "benefit as prophylactic agent for migraines", "setting": "migraine headache", "result": "without benefit"}]}
{"molecule": "NCC1(CC(=O)O)CCCCC1", "note": "[gabapentin]", "values": [{"measurement": "benefit as prophylactic agent for migraines", "setting": "migraine headache", "result": "without benefit"}, {"measurement": "benefit for migraine prophylaxis, history at first visit", "setting": "migraine headache", "result": "no benefit"}, {"measurement": "benefit from previous treatment", "setting": "migraine headache", "result": "no benefit"}]}
{"molecule": "Oc1ccc2c(c1)[C@@]13CCCC[C@@]1(O)[C@@H](C2)N(CC1CCC1)CC3", "note": "[butorphanol]", "values": [{"measurement": "benefit for rescue", "setting": "migraine headache", "result": "without benefit"}]}
{"molecule": "CN(C)CCc1c[nH]c2ccc(Cn3cncn3)cc12", "note": "[rizatriptan]", "values": [{"measurement": "adverse effect when tried for rescue", "setting": "[1]", "result": "severe elevation in their blood pressure"}, {"measurement": "benefit for rescue", "setting": "migraine headache", "result": "no longer effective"}, {"measurement": "share of the time it worked for rescue", "setting": "migraine headache", "result": "approximately 20 % of the time"}]}
{"molecule": "CN(C)CCc1c[nH]c2ccc(C[C@H]3COC(=O)N3)cc12", "note": "[zolmitriptan nasal spray, zolmitriptan]", "values": [{"measurement": "benefit for rescue", "setting": "migraine headache", "result": "without benefit"}]}
{"molecule": "CNS(=O)(=O)Cc1ccc2[nH]cc(CCN(C)C)c2c1", "note": "[sumatriptan tablet, sumatriptan]", "values": [{"measurement": "benefit for rescue", "setting": "migraine headache", "result": "not helpful; also recorded: partially helpful; also recorded: without benefit"}]}
{"molecule": "CC(C)Cc1ccc(C(C)C(=O)O)cc1", "note": "(centres unmarked) [ibuprofen]", "values": [{"measurement": "benefit from previous treatment", "setting": "migraine headache", "result": "no benefit"}]}
{"molecule": "CCCC(CCC)C(=O)O", "note": "[valproic acid]", "values": [{"measurement": "benefit as prophylactic agent for migraines", "setting": "migraine headache", "result": "without benefit"}]}
{"molecule": "C[C@@H]1[C@H](c2ccccc2)C[C@H](NC(=O)c2cnc3c(c2)C[C@@]2(C3)C(=O)Nc3ncccc32)C(=O)N1CC(F)(F)F", "note": "[Ubrelvy]", "values": [{"measurement": "benefit for rescue", "setting": "migraine headache", "result": "not helpful"}]}
{"molecule": "NC(=O)N1c2ccccc2C=Cc2ccccc21", "note": "[carbamazepine]", "values": [{"measurement": "benefit as prophylactic agent for migraines", "setting": "migraine headache", "result": "without benefit"}]}
{"molecule": "C[C@]12C=CC(=O)C=C1CC[C@@H]1[C@@H]2C(=O)C[C@@]2(C)[C@H]1CC[C@]2(O)C(=O)CO", "note": "[prednisone]", "values": [{"measurement": "benefit as prophylactic agent for migraines", "setting": "migraine headache", "result": "without benefit"}]}
{"molecule": "Cc1nccn1CC1CCc2c(c3ccccc3n2C)C1=O", "note": "(centres unmarked) [ondansetron]", "values": [{"measurement": "effect on nausea", "setting": "nausea", "result": "at times helpful for nausea"}]}
{"molecule": "CN(C)CCC=C1c2ccccc2CCc2ccccc21", "note": "[amitriptyline]", "values": [{"measurement": "benefit as prophylactic agent for migraines", "setting": "migraine headache", "result": "without benefit"}]}
{"molecule": "CN1CCC[C@@H]1Cc1c[nH]c2ccc(CCS(=O)(=O)c3ccccc3)cc12", "note": "[eletriptan]", "values": [{"measurement": "benefit for rescue", "setting": "migraine headache", "result": "consistently effective"}]}
{"molecule": "CCN(CC)CCNC(=O)c1cc(Cl)c(N)cc1OC", "note": "[metoclopramide]", "values": [{"measurement": "tolerability", "setting": "[1]", "result": "intolerant"}]}
{"molecule": "COc1cccc(C2(O)CCCCC2CN(C)C)c1", "note": "(centres unmarked) [tramadol]", "values": [{"measurement": "benefit for rescue", "setting": "migraine headache", "result": "partially helpful; also recorded: without benefit"}]}
{"molecule": "CCCCN1CCCCC1C(=O)Nc1c(C)cccc1C", "note": "(centres unmarked) [bupivacaine]", "values": [{"measurement": "pain after local anesthetic injection along superior nuchal line", "setting": "migraine headache", "result": "substantially improved for two days"}]}
{"molecule": "Clc1ccc2nsnc2c1NC1=NCCN1", "note": "[tizanidine]", "values": [{"measurement": "benefit as prophylactic agent for migraines", "setting": "migraine headache", "result": "without benefit"}, {"measurement": "benefit for prophylaxis", "setting": "migraine headache", "result": "partially helpful"}]}
{"molecule": "CC(C)NCC(O)COc1cccc2ccccc12", "note": "(centres unmarked) [propranolol]", "values": [{"measurement": "tolerability", "setting": "[1]", "result": "caused dizziness"}, {"measurement": "benefit as prophylactic agent for migraines", "setting": "migraine headache", "result": "without benefit"}, {"measurement": "benefit from previous treatment", "setting": "migraine headache", "result": "no benefit"}]}
{"molecule": "CCCCc1nc(Cl)c(CO)n1Cc1ccc(-c2ccccc2-c2nn[nH]n2)cc1", "note": "[losartan]", "values": [{"measurement": "benefit for migraine prophylaxis, history at first visit", "setting": "migraine headache", "result": "no benefit"}]}
{"molecule": "COC1=C(OC)C(=O)C(C/C=C(\\C)CC/C=C(\\C)CC/C=C(\\C)CC/C=C(\\C)CC/C=C(\\C)CC/C=C(\\C)CC/C=C(\\C)CC/C=C(\\C)CC/C=C(\\C)CCC=C(C)C)=C(C)C1=O", "note": "[coenzyme Q10]", "values": [{"measurement": "benefit as prophylactic agent for migraines", "setting": "migraine headache", "result": "without benefit"}, {"measurement": "benefit for prophylaxis", "setting": "migraine headache", "result": "no benefit"}, {"measurement": "effect on frequency of headaches after 4-6 weeks", "setting": "migraine headache", "result": "did not affect the frequency"}]}
{"molecule": "Cc1cc2nc3c(=O)[nH]c(=O)nc-3n(C[C@H](O)[C@H](O)[C@H](O)CO)c2cc1C", "note": "[riboflavin]", "values": [{"measurement": "effect on frequency of headaches after 4-6 weeks", "setting": "migraine headache", "result": "did not affect the frequency"}]}
{"molecule": "NCC(CC(=O)O)c1ccc(Cl)cc1", "note": "(centres unmarked) [baclofen]", "values": [{"measurement": "benefit as prophylactic agent for migraines", "setting": "migraine headache", "result": "without benefit"}, {"measurement": "benefit for migraine prophylaxis, history at first visit", "setting": "migraine headache", "result": "no benefit"}, {"measurement": "benefit from previous treatment", "setting": "migraine headache", "result": "no benefit"}]}
{"molecule": "Ajovy: prophylactic agent tried for migraines (antibody, chains of the INN, looked up, V domains shown) VH: EVQLVESGGGLVQPGGSLRLSCAASGFTFSNYWISWVRQAPGKGLEWVAEIRSESDASATHYAEAVKGRFTISRDNAKNSLYLQMNSLRAEDTAVYYCLAYFDYGLAIQNYWGQGTLVTVSS VL: EIVLTQSPATLSLSPGERATLSCKASKRVTTYVSWYQQKPGQAPRLLIYGASNRYLGIPARFSGSGSGTDFTLTISSLEPEDFAVYYCSQSYNYPYTFGQGTKLEIK", "values": [{"measurement": "benefit as prophylactic agent for migraines", "setting": "migraine headache", "result": "without benefit"}]}
{"molecule": "Emgality: prophylactic agent prescribed for chronic migraine (antibody, chains of the INN, looked up, V domains shown) VH: QVQLVQSGAEVKKPGSSVKVSCKASGYTFGNYWMQWVRQAPGQGLEWMGAIYEGTGKTVYIQKFADRVTITADKSTSTAYMELSSLRSEDTAVYYCARLSDYVSGFGYWGQGTTVTVSS VL: DIQMTQSPSSLSASVGDRVTITCRASKDISKYLNWYQQKPGKAPKLLIYYTSGYHSGVPSRFSGSGSGTDFTLTISSLQPEDFATYYCQQGDALPPTFGGGTKVEIK", "values": [{"measurement": "side effects", "setting": "[1]", "result": "caused unwanted side effects"}, {"measurement": "benefit as prophylactic agent for migraines", "setting": "migraine headache", "result": "without benefit"}, {"measurement": "benefit for migraine prophylaxis", "setting": "migraine headache", "result": "significantly improved"}, {"measurement": "benefit for migraine prophylaxis, history at first visit", "setting": "migraine headache", "result": "had not noticed any obvious benefit"}, {"measurement": "benefit for migraine, subsequent treatment rounds", "setting": "migraine headache", "result": "reduced the pain somewhat, but had not reduced the frequency or duration"}, {"measurement": "frequency of headaches with throbbing, light and sound sensitivity", "setting": "migraine headache", "result": "once or twice per week"}, {"measurement": "migraine frequency on treatment", "setting": "migraine headache", "result": "2 to 3", "unit": "days/week"}]}
